Measured values reported in ChEMBL document CHEMBL3885861, “Open TG-GATES”.

Species on record: Rattus norvegicus
Assay: Open TG-GATES - Regimen: Daily Repeat
Type: toxicity, organism-based, Sprague-Dawley
Parameters: regimen Daily Repeat, gender Male, age 6 weeks
Conditions: in vivo, po, route gavage; for gamma-GTP / A/G / ALP / ALT / AST / BUN / CRE / Ca / Cl / DBIL / GLC / IP / K / LDH / Na / PL / RALB / TBIL / TC / TG / TP: tissue Plasma; for APTT / Bas / Eos / Fbg / Hb / Ht / Lym / MCH / MCHC / MCV / Mono / Neu / PT / Plat / RBC / Ret / WBC: tissue Blood; for KIDNEY_L / KIDNEY_R / KIDNEY_TOTAL: tissue Kidney; for LIVER: tissue Liver
[1] = 3 mg/kg, […], dose level Low, time 28 day
[2] = 10 mg/kg, 72 h, dose level Middle, time 3 day
[3] = 10 mg/kg, […], dose level Middle, time 7 day
[4] = 10 mg/kg, […], dose level Middle, time 14 day
[5] = 10 mg/kg, […], dose level Middle, time 28 day

SMILES: CCN(CC)N=O [N-NITROSODIETHYLAMINE]
- gamma-GTP (3 mg/kg, […], dose level Low, time 14 day): 1.2 IU/L
- A/G [1]: 1.3
- ALP [1]: 685.6 IU/L
- ALT [1]: 37.6 IU/L
- AST [1]: 69.4 IU/L
- BUN [1]: 15.6 mg/dL
- CRE [1]: 0.5 mg/dL
- Ca [1]: 10.2 mg/dL
- Cl [1]: 103.2 meq/L
- DBIL [1]: 0.1 mg/dL
- GLC [1]: 203.8 mg/dL
- IP [1]: 7 mg/dL
- K [1]: 3.7 meq/L
- LDH [1]: 198.4 IU/L
- Na [1]: 141.6 meq/L
- PL [1]: 142.2 mg/dL
- RALB [1]: 3.4 g/dL
- TBIL [1]: 0.2 mg/dL
- TC [1]: 72 mg/dL
- TG [1]: 109.8 mg/dL
- TP [1]: 6 g/dL
- gamma-GTP [1]: 1.6 IU/L
- TERMINAL_BW [2]: 232.4 g
- APTT [2]: 17.9 s
- Bas [2]: 0.4%
- Eos [2]: 1%
- Fbg [2]: 224.4 mg/dL
- Hb [2]: 13.7 g/dL
- Ht [2]: 39.6%
- Lym [2]: 80.6%
- MCH [2]: 21.4 pg
- MCHC [2]: 34.5%
- MCV [2]: 62 fL
- Mono [2]: 1.8%
- Neu [2]: 15.6%
- PT [2]: 11.9 s
- Plat [2]: 144.5 x10_4/uL
- RBC [2]: 639 x10_4/ul
- Ret [2]: 5.5%
- WBC [2]: 81.6 x10_2/uL
- KIDNEY_L [2]: 1 g
- KIDNEY_R [2]: 1 g
- KIDNEY_TOTAL [2]: 2 g
- LIVER [2]: 9.9 g
- A/G [2]: 1.5
- ALP [2]: 927.8 IU/L
- ALT [2]: 33.6 IU/L
- AST [2]: 69 IU/L
- BUN [2]: 14.4 mg/dL
- CRE [2]: 0.4 mg/dL
- Ca [2]: 10.6 mg/dL
- Cl [2]: 103.4 meq/L
- DBIL [2]: 0.09 mg/dL
- GLC [2]: 186.6 mg/dL
- IP [2]: 7.5 mg/dL
- K [2]: 4.1 meq/L
- LDH [2]: 186.8 IU/L
- Na [2]: 140.8 meq/L
- PL [2]: 126.4 mg/dL
- RALB [2]: 3.3 g/dL
- TBIL [2]: 0.1 mg/dL
- TC [2]: 69 mg/dL
- TG [2]: 75 mg/dL
- TP [2]: 5.5 g/dL
- gamma-GTP [2]: 1.4 IU/L
- TERMINAL_BW [3]: 255.8 g
- TERMINAL_BW [4]: 288.9 g
- TERMINAL_BW [5]: 349 g
- APTT [3]: 19.3 s
- Bas [3]: 0.8%
- Eos [3]: 1%
- Fbg [3]: 210.6 mg/dL
- Hb [3]: 14.7 g/dL
- Ht [3]: 41.7%
- Lym [3]: 80%
- MCH [3]: 21.2 pg
- MCHC [3]: 35.2%
- MCV [3]: 60.3 fL
- Mono [3]: 2.4%
- Neu [3]: 15.8%
- PT [3]: 12.3 s
- Plat [3]: 139.2 x10_4/uL
- RBC [3]: 693.4 x10_4/ul
- Ret [3]: 3.4%
- WBC [3]: 94.2 x10_2/uL
- APTT [4]: 18.7 s
- Bas [4]: 1%
- Eos [4]: 1.2%
- Fbg [4]: 212 mg/dL
- Hb [4]: 16 g/dL
- Ht [4]: 44.8%
- Lym [4]: 75.2%
- MCH [4]: 21.4 pg
- MCHC [4]: 35.6%
- MCV [4]: 60.2 fL
- Mono [4]: 2.6%
- Neu [4]: 20%
- PT [4]: 12.8 s
- Plat [4]: 135.1 x10_4/uL
- RBC [4]: 745.2 x10_4/ul
- Ret [4]: 3%
- WBC [4]: 125 x10_2/uL
- APTT [5]: 17.1 s
- Bas [5]: 0.6%
- Eos [5]: 0.8%
- Fbg [5]: 197.8 mg/dL
- Hb [5]: 16.8 g/dL
- Ht [5]: 45.5%
- Lym [5]: 77.4%
- MCH [5]: 20.6 pg
- MCHC [5]: 36.9%
- MCV [5]: 55.9 fL
- Mono [5]: 2.4%
- Neu [5]: 18%
- PT [5]: 12.7 s
- Plat [5]: 115.5 x10_4/uL
- RBC [5]: 815 x10_4/ul
- Ret [5]: 1.9%
- WBC [5]: 126.6 x10_2/uL
- KIDNEY_L [3]: 1 g
- KIDNEY_R [3]: 1 g
- KIDNEY_TOTAL [3]: 2.1 g
- KIDNEY_L [4]: 1.1 g
- KIDNEY_R [4]: 1.1 g
- KIDNEY_TOTAL [4]: 2.3 g
- KIDNEY_L [5]: 1.2 g
- KIDNEY_R [5]: 1.2 g
- KIDNEY_TOTAL [5]: 2.3 g
- LIVER [3]: 10.2 g
- LIVER [4]: 9.6 g
- LIVER [5]: 9.3 g
- A/G [3]: 1.7
- ALP [3]: 860.8 IU/L
- ALT [3]: 36.2 IU/L
- AST [3]: 78 IU/L
- BUN [3]: 13.6 mg/dL
- CRE [3]: 0.4 mg/dL
- Ca [3]: 10.4 mg/dL
- Cl [3]: 104.2 meq/L
- DBIL [3]: 0.1 mg/dL
- GLC [3]: 190.2 mg/dL
- IP [3]: 7.4 mg/dL
- K [3]: 4 meq/L
- LDH [3]: 236.4 IU/L
- Na [3]: 141.2 meq/L
- PL [3]: 131 mg/dL
- RALB [3]: 3.3 g/dL
- TBIL [3]: 0.2 mg/dL
- TC [3]: 71.4 mg/dL
- TG [3]: 59.2 mg/dL
- TP [3]: 5.3 g/dL
- gamma-GTP [3]: 1.2 IU/L
- A/G [4]: 1.6
- ALP [4]: 1173 IU/L
- ALT [4]: 52.8 IU/L
- AST [4]: 91.4 IU/L
- BUN [4]: 15 mg/dL
- CRE [4]: 0.5 mg/dL
- Ca [4]: 10.5 mg/dL
- Cl [4]: 101.6 meq/L
- DBIL [4]: 0.1 mg/dL
